These results are taken from ChEMBL document CHEMBL1133371, “Amido-(propyl and allyl)-hydroxybenzamidines: development of achiral inhibitors of factor Xa” (Bioorg Med Chem Lett, 2000).

pKi: −log10 of the molar value. Some results are limits rather than exact numbers.

Assay [1] has as its target Vitamin K-dependent protein C (Homo sapiens, UniProt P04070). As to the kind of experiment: Compound was evaluated for the inhibitory activity against Activated protein C.
Another assay addresses Prothrombin (Homo sapiens, UniProt P00734). Kind of assay: In vitro inhibition of coagulation factor IIa.
A further assay deals with Coagulation factor X (Homo sapiens, UniProt P00742). As to the kind of experiment: In vitro inhibition of coagulation factor Xa.
Chain of Coagulation factor X (P00742 41-179 limits assumed): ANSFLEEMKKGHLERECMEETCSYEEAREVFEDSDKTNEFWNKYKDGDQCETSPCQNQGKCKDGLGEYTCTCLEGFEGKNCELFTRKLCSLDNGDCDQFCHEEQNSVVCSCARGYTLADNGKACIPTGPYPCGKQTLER
Chain of Coagulation factor X (P00742 235-488 limits assumed): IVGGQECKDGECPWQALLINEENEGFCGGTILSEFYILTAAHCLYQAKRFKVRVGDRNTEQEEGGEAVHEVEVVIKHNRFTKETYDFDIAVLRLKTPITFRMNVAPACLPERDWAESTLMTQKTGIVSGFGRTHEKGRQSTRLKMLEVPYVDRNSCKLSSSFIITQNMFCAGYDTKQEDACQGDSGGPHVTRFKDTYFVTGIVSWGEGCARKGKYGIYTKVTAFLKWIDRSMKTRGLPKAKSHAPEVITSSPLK
The next assay concerns the target Plasminogen (Homo sapiens, UniProt P00747). As to the kind of experiment: Compound was tested for its inhibitory activity against Plasmin.
The target in a further assay is Serine protease 1 (Homo sapiens, UniProt P07477). As to the kind of experiment: In vitro inhibition of trypsin.
Chain of Serine protease 1 (P07477 whole entry): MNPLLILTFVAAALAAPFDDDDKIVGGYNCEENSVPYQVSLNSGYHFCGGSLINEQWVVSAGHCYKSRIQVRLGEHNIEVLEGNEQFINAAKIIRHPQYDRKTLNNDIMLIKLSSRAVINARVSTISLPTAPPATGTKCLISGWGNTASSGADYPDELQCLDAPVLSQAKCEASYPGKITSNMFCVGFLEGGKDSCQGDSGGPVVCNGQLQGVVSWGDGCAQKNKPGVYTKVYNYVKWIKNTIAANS
Assay [2] addresses Tissue-type plasminogen activator (Homo sapiens, UniProt P00750). Kind of assay: Compound was tested for its inhibitory activity against tissue plasminogen activator.
For the next assay, the species on record is Homo sapiens. Kind of assay: Ability to prolong the activated partial thromboplastin time (APTT) in plasma from human. It counts as functional, cell-free.
For the next assay, the species on record is Rattus norvegicus. As to the kind of experiment: Ability to prolong the activated partial thromboplastin time (APTT) in plasma from rat.
Another assay is filed under the species Canis lupus familiaris. Kind of assay: Ability to prolong the activated partial thromboplastin time (APTT) in plasma from dog.
Another assay is filed under the species Oryctolagus cuniculus. Kind of assay: Ability to prolong the activated partial thromboplastin time (APTT) in plasma from rabbit.

Chain of Plasminogen (P00747 97-580 limits assumed): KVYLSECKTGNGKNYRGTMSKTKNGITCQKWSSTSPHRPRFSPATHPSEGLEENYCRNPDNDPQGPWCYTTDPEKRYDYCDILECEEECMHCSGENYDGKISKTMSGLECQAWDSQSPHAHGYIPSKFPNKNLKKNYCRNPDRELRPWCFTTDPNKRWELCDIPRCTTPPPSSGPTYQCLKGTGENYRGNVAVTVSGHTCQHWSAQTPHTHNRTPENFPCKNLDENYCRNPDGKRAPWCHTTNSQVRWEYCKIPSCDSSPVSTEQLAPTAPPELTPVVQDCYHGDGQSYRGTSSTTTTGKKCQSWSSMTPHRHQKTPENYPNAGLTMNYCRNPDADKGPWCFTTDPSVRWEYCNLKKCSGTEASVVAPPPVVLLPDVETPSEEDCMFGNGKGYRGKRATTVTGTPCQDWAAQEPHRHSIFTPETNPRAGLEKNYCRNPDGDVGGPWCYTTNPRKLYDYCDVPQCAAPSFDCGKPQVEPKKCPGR
Chain of Plasminogen (P00747 581-810 limits assumed): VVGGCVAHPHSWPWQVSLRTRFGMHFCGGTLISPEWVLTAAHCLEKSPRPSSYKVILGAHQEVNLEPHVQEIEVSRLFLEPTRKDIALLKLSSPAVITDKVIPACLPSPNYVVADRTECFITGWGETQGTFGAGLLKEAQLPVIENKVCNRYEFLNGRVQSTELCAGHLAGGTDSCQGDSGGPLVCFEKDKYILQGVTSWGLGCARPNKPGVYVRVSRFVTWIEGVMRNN
Chain of Vitamin K-dependent protein C (P04070 43-197 limits assumed): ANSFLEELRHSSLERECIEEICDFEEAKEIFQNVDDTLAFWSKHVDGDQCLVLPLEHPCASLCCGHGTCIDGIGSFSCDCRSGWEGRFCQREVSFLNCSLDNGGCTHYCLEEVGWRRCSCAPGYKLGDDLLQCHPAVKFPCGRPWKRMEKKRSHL
Chain of Vitamin K-dependent protein C (P04070 212-461 limits assumed): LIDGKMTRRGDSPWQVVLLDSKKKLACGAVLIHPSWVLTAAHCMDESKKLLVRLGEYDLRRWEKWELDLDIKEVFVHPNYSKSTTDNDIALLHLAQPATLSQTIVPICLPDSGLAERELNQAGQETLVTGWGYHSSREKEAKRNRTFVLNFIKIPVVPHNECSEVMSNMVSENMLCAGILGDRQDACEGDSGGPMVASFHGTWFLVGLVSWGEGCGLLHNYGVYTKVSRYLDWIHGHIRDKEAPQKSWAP
Chain of Tissue-type plasminogen activator (P00750 whole entry): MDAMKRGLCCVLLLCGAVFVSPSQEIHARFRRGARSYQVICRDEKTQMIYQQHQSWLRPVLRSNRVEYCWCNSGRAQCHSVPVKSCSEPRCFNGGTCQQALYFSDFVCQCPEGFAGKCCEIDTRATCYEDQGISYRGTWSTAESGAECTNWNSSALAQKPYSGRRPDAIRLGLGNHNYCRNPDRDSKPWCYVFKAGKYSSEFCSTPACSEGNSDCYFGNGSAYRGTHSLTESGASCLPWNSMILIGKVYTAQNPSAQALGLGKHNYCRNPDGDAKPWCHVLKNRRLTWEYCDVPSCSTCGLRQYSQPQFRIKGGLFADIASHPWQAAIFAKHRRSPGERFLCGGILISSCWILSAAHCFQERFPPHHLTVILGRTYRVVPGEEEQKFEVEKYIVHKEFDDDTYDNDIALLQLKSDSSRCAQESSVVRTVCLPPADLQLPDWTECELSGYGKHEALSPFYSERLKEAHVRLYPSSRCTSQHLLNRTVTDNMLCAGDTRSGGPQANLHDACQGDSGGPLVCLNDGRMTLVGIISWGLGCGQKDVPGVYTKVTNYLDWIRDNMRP

On to `N=C(N)c1ccc(O)c(CCCNC(=O)c2ccc(-c3cccc(C(N)=O)c3)cc2)c1`, for which the pKi in assay [1] is 4.82; on Prothrombin, less than 5.40; at Coagulation factor X, 8.15; at Plasminogen, 5.46; on Serine protease 1, less than 5.54; in [2], less than 5.06.

For the compound `N=C(N)c1ccc(O)c(/C=C/CNC(=O)c2ccc(-c3ncc[nH]3)cc2)c1`, the pKi on Prothrombin is less than 5.40; at Coagulation factor X it was 6.89; on Serine protease 1 it was 5.85.

In turn, `COC(=O)[C@H](Cc1cccc(C(=N)N)c1)[C@@H](C)NC(=O)c1ccc(-c2ccccc2)cc1` had a pKi on Coagulation factor X of 8.30.

As to `N=C(N)c1ccc(O)c(CCCNC(=O)c2ccc(-c3cccnc3)cc2)c1`, the pKi on Prothrombin is less than 5.40; on Coagulation factor X it was 7.42; on Serine protease 1, 5.72.

In the case of `N=C(N)c1ccc(O)c(CCCNC(=O)c2ccc(-c3c[nH]cn3)cc2)c1`, the pKi was less than 5.40 at Prothrombin, 6.60 at Coagulation factor X and roughly 5.54 at Serine protease 1.

For `N=C(N)c1ccc(O)c(/C=C/CNC(=O)c2ccc(-c3ccccc3S(N)(=O)=O)cc2)c1`, the pKi at Prothrombin was less than 5.40; at Coagulation factor X it was 8.70; on Serine protease 1 it was 5.82.

Regarding `N=C(N)c1ccc(O)c(CCCNC(=O)c2ccc(-c3ccccc3)cc2)c1`, the pKi was less than 5.40 at Prothrombin, 7.06 at Coagulation factor X and less than 5.54 on Serine protease 1.

Take `N=C(N)c1ccc(O)c(/C=C/CNC(=O)c2ccc(-c3cccc(S(N)(=O)=O)c3)cc2)c1`: the pKi at Prothrombin is less than 5.40; at Coagulation factor X it was 8.05; on Serine protease 1, 6.62.

On to `N=C(N)c1ccc(O)c(/C=C/CNC(=O)c2ccc(-c3c[nH]cn3)cc2)c1`, for which the figures for the pKi at Prothrombin, at Coagulation factor X and at Serine protease 1 were less than 5.40, 7.72 and 5.74, respectively.

As for `CC(C)(C)c1ccc(C(=O)NC/C=C/c2cc(C(=N)N)ccc2O)cc1`, the pKi is 5.49 at Prothrombin, 7.21 on Coagulation factor X and 5.64 at Serine protease 1.

For the compound `N=C(N)c1ccc(O)c(/C=C/CNC(=O)c2ccc(-c3cccc(C(N)=O)c3)cc2)c1`, the pKi at Prothrombin was less than 5.40; on Coagulation factor X, 8.30; at Serine protease 1, less than 5.54.

Take `CC(C)(C)c1ccc(C(=O)NCCCc2cc(C(=N)N)ccc2O)cc1`: the pKi at Prothrombin is less than 5.40; on Coagulation factor X, 7.23; on Serine protease 1 it was 5.66.

For the compound `N=C(N)c1ccc(O)c(/C=C/CNC(=O)c2ccc(-c3ccc(C(N)=O)cc3)cc2)c1`, the pKi on Prothrombin was 5.54; at Coagulation factor X, 7.70; on Serine protease 1, 5.85.

In the case of `N=C(N)c1ccc(O)c(/C=C/CNC(=O)c2ccc(-c3ccccn3)s2)c1`, the pKi was less than 5.40 at Prothrombin, 7.43 on Coagulation factor X and 5.85 at Serine protease 1.

For the compound `COC(=O)[C@H](Cc1cccc(C(=N)N)c1)[C@@H](C)NC(=O)c1ccc(-c2cccc(C(N)=O)c2)cc1`, the pKi is less than 4.73 in assay [1], 9.30 at Coagulation factor X, 6.85 at Plasminogen and less than 5.06 in assay [2].

Regarding `N=C(N)c1ccc(O)c(CCCNC(=O)c2cc3ccc(Cl)cc3s2)c1`, the pKi at Prothrombin was roughly 5.40; at Coagulation factor X it was 6.74; on Serine protease 1, less than 5.54.

Take `N=C(N)c1ccc(O)c(CCCNC(=O)c2ccc(-c3ncc[nH]3)cc2)c1`: the figures for the pKi at Prothrombin, on Coagulation factor X and on Serine protease 1 were less than 5.40, 7.24 and roughly 5.54, respectively.

Consider `N=C(N)c1ccc(O)c(/C=C/CNC(=O)c2ccc(-c3ccnc(C(N)=O)c3)cc2)c1`, for which the pKi was roughly 4.73 in [1]; less than 5.40 on Prothrombin; 9.12 on Coagulation factor X; less than 5.14 at Plasminogen; 5.66 on Serine protease 1; 5.11 in assay [2]. Besides, the Concentration in the assay listed under Homo sapiens is 0.87 µM; in the assay listed under Rattus norvegicus, 1.7 µM; in the assay filed under Canis lupus familiaris, 0.99 µM; in the assay filed under Oryctolagus cuniculus it was 0.51 µM.

Regarding `N=C(N)c1ccc(O)c(/C=C/CNC(=O)c2ccc(-c3ccc(S(N)(=O)=O)cc3)cc2)c1`, the figures for the pKi on Prothrombin, at Coagulation factor X and at Serine protease 1 were less than 5.40, 7.92 and 5.80, respectively.

Compound `N=C(N)c1cccc(CCCNC(=O)c2ccc(-c3ccccc3)cc2)c1` showed a pKi on Coagulation factor X of 6.00.

Consider `N=C(N)c1ccc(O)c(/C=C/CNC(=O)c2cc3nnc(O)cc3s2)c1`, for which the pKi is less than 5.40 at Prothrombin, 6.74 at Coagulation factor X and 5.85 on Serine protease 1.

Consider `N=C(N)c1ccc(O)c(/C=C/CNC(=O)c2ccc(-c3ccccc3)cc2)c1`, for which the pKi at Prothrombin was less than 5.40; on Coagulation factor X, 7.29; on Serine protease 1, less than 5.54.

Turning to `N=C(N)c1ccc(O)c(CCCNC(=O)c2ccc(-c3ccccn3)s2)c1`, the values for the pKi on Prothrombin, at Coagulation factor X and on Serine protease 1 were less than 5.40, 6.88 and less than 5.54, respectively.
